Data reported in ChEMBL document CHEMBL1201862, “PubChem BioAssay data set” (2004).
Active and inactive are the calls of the source.

Key:
[1] = biological target: Trypsin (Sus scrofa, UniProt P00761); test: porcine trypsin inhibitors, dose response, selectivity assay for Rce1 protease inhibitor project, biochemical, quenched peptide fluorescence, cherry-pick (AID 488789)
[2] = biological target: CAAX prenyl protease 2 (Saccharomyces cerevisiae S288c, UniProt Q03530); type: biochemical
[3] = biological target: CAAX prenyl protease 1 (Saccharomyces cerevisiae S288c, UniProt P47154); test: Ste24 protease inhibitors, dose response, biochemical, S. cerevisiae, plate reader, cherry-pick (AID 488815)
[4] = biological target: T1, CAAX prenyl protease 2 (Homo sapiens, UniProt Q9Y256); test: human Rce1 protease inhibitors, dose response, biochemical, yeast membranes, quenched-peptide fluorescence, cherry-pick (AID 588849)
T1 sequence (Q9Y256 whole entry): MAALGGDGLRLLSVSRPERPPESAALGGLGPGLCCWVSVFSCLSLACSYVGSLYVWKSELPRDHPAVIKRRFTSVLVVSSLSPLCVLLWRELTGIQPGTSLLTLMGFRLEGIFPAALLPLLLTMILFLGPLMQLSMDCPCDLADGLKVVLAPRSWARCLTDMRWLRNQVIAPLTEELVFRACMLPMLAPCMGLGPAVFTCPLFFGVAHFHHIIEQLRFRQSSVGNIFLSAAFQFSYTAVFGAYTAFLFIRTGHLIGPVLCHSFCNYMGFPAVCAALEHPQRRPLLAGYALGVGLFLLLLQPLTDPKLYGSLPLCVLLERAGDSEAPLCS

[5] = inhibitors of Vif binding to APOBEC3G peptide, primary screen, biochemical, TR-FRET, GST-Vif 1-94, biotin-A3G peptide, dose response retest (AID 1117319); type: functional;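 note: TR-FRET signal of purified GST-Vif binding a biotinylated A3G peptide; inhibitors lower the FRET signal by blocking Vif and A3G binding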
[6] = system: J774.A1; test: Confirmation of image-based Screening Assay for Inhibitors of Phagocytosis. [Related pubchem assays (depositor defined):AID1029, AID1643]; type: functional, cell-based; conditions: Mus musculus
[7] = cells; type: functional, cell-based
[8] = inhibitors of SNCA 5'UTR-driven translation, confirmation, luminescence, H4 neuroglioblastoma cells, dose confirmation (AID 2454); type: functional, cell-based;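 note: H4 neuroglioblastoma cells carrying an alpha-synuclein 5'UTR luciferase reporter; potency for inhibition of the luciferase signal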
[9] = Luminescence Cell-Based Dose Response HTS to Identify Inhibitors of 5'UTR Stem-Loop Driven Prion Protein mRNA Translation in H4 Neuroglioblastoma Cells. [Related pubchem assays: 1827 (Project Summary), 1813 (Primary HTS)]; type: functional
[10] = system: BJ; test: cells; type: functional, cell-based; conditions: Homo sapiens
[11] = luciferase reporter signal reduction – luminescence, H4-C neuroglioblastoma cells, dose response (AID 2458); type: functional, cell-based;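 note: H4 neuroglioblastoma cells stably carrying a luciferase reporter gene fusion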
[12] = inhibitors of SNCA 5'UTR-driven reporter translation, confirmation, H4 neuroglioma cells, luminescence (AID 1988); type: functional, cell-based
[13] = system: BJ; test: cytotoxicity toward BJ-TERT fibroblasts, dose response, cell-based, RAS-independent, luminescence (AID 1933); type: functional; conditions: Homo sapiens
[14] = inhibitors of firefly luciferase expression or activity, dose response, H4 neuroglioma cells, luminescence (AID 1990); type: functional, cell-based
[15] = system: BJ; test: cytotoxicity toward BJ-TERT-LT-ST fibroblasts, dose response, cell-based, RAS-independent, luminescence (AID 1935); type: functional; conditions: Homo sapiens;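 note: BJ fibroblasts immortalized with TERT plus LT and ST oncogenes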
[16] = cytotoxicity toward DRD oncogenic fibroblasts, dose response, cell-based, non-viral oncogenic, luminescence (AID 1934); type: functional; conditions: Homo sapiens
[17] = biological target: T2, Estrogen receptor beta (Homo sapiens, UniProt Q92731); test: ERβ–SRC-3 coactivator interaction inhibitors, confirmation, orthogonal assay, biochemical, ELISA, streptavidin-HRP readout (AID 1060)
T2 sequence (Q92731 whole entry): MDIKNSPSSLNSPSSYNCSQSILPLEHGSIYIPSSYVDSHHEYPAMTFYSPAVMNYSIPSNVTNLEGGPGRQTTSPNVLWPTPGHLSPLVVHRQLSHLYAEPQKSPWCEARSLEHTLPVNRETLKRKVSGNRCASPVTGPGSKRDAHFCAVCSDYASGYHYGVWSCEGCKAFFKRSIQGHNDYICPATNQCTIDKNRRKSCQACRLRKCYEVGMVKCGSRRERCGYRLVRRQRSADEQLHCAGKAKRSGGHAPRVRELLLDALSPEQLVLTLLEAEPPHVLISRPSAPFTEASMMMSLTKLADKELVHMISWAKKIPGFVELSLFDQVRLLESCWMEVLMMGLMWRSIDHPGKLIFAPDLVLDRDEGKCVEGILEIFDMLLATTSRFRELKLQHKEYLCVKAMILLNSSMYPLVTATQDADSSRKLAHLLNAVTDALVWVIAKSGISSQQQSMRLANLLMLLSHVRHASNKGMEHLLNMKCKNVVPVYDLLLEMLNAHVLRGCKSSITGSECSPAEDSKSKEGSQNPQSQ

[18] = biological target: 72 kDa type IV collagenase (Homo sapiens, UniProt P08253); test: Dose Response validation of uHTS RPN11 inhibitor hits using a MMP-2 Fluorescence assay.; type: functional
[19] = biological target: Large T antigen (Simian virus 40, UniProt P03070); type: functional, Betapolyomavirus macacae;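 note: Confirmatory-stage PubChem screen for compounds that inhibit SV40 T antigen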
[20] = biological target: Protein Tat (Human immunodeficiency virus type 1 group M subtype B (isolate HXB2)(HIV-1), UniProt P04608); type: functional;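 note: tat binding to TAR RNA read out by fluorescence polarization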
Chain of Protein Tat (P04608 whole entry): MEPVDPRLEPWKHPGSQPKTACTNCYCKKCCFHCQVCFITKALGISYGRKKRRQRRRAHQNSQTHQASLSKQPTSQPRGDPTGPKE

[21] = inhibition of K1F phage lysis, E. coli UTI89, bacterial capsule biogenesis inhibitors, alamar blue (AID 488966); type: functional
[22] = biological target: T3, Protein skinhead-1 (Caenorhabditis elegans, UniProt P34707); type: functional
T3 sequence (P34707 whole entry): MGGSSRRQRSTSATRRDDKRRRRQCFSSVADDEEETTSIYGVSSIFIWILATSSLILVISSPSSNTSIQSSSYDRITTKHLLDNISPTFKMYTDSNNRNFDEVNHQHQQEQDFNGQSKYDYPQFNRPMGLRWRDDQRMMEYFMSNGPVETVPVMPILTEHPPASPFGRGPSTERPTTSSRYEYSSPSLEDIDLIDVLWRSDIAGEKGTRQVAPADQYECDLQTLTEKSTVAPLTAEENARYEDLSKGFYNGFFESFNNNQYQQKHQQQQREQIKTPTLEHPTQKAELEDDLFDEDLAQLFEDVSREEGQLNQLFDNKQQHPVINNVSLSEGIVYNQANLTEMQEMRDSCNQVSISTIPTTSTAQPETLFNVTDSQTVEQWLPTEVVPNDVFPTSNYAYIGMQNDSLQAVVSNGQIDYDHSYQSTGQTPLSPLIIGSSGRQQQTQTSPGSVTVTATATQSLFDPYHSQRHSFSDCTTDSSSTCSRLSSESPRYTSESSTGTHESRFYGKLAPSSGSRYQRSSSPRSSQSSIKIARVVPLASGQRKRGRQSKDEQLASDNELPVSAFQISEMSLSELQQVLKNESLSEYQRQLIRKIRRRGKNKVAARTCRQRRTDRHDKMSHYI

[23] = biological target: T2, Estrogen receptor beta
[24] = biological target: Prothrombin (Bos taurus, UniProt P00735); test: thrombin inhibition, dose response, biochemical, fluorescence polarization, uHTS hits (AID 602369); type: functional
[25] = biological target: Induced myeloid leukemia cell differentiation protein Mcl-1 (Homo sapiens, UniProt Q07820); type: functional
Chain of Induced myeloid leukemia cell differentiation protein Mcl-1 (Q07820 whole entry): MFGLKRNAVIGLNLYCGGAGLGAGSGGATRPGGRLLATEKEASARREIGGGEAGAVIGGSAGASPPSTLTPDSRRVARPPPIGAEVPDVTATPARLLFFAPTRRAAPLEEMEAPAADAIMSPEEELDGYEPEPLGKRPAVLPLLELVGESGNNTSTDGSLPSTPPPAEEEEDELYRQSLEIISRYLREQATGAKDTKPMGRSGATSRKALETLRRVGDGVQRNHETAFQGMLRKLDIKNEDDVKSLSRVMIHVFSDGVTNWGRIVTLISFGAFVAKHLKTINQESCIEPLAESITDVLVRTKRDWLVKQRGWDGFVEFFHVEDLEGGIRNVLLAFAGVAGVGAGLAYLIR

[26] = inhibitors of Bluetongue virus cytopathic effect, confirmation, arbovirus, BSR cells (AID 1250); type: functional;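 note: protection from viral cytopathic effect measured as cell viability by ATP luminescence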
[27] = biological target: 26S proteasome non-ATPase regulatory subunit 14 (Homo sapiens, UniProt O00487); test: inhibition of proteasome subunit RPN11 – biochemical, fluorescence polarization, uHTS hits, confirmation (AID 602368); type: functional
Chain of 26S proteasome non-ATPase regulatory subunit 14 (O00487 whole entry): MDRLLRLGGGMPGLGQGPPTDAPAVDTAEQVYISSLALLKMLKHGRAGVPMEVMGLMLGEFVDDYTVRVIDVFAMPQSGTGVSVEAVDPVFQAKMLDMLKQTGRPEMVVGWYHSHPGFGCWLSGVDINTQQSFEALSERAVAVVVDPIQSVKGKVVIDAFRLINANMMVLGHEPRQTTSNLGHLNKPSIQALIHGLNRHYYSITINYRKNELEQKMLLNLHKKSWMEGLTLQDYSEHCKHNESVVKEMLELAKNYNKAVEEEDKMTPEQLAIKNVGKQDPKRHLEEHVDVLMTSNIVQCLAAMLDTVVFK

[28] = biological target: T4, Voltage-gated N-type calcium channel alpha-1B subunit/Amyloid beta A4 precursor protein-binding family A member 1 (Homo sapiens, UniProt Q00975+Q02410); type: protein assay
T4 sequence (Q00975 whole entry): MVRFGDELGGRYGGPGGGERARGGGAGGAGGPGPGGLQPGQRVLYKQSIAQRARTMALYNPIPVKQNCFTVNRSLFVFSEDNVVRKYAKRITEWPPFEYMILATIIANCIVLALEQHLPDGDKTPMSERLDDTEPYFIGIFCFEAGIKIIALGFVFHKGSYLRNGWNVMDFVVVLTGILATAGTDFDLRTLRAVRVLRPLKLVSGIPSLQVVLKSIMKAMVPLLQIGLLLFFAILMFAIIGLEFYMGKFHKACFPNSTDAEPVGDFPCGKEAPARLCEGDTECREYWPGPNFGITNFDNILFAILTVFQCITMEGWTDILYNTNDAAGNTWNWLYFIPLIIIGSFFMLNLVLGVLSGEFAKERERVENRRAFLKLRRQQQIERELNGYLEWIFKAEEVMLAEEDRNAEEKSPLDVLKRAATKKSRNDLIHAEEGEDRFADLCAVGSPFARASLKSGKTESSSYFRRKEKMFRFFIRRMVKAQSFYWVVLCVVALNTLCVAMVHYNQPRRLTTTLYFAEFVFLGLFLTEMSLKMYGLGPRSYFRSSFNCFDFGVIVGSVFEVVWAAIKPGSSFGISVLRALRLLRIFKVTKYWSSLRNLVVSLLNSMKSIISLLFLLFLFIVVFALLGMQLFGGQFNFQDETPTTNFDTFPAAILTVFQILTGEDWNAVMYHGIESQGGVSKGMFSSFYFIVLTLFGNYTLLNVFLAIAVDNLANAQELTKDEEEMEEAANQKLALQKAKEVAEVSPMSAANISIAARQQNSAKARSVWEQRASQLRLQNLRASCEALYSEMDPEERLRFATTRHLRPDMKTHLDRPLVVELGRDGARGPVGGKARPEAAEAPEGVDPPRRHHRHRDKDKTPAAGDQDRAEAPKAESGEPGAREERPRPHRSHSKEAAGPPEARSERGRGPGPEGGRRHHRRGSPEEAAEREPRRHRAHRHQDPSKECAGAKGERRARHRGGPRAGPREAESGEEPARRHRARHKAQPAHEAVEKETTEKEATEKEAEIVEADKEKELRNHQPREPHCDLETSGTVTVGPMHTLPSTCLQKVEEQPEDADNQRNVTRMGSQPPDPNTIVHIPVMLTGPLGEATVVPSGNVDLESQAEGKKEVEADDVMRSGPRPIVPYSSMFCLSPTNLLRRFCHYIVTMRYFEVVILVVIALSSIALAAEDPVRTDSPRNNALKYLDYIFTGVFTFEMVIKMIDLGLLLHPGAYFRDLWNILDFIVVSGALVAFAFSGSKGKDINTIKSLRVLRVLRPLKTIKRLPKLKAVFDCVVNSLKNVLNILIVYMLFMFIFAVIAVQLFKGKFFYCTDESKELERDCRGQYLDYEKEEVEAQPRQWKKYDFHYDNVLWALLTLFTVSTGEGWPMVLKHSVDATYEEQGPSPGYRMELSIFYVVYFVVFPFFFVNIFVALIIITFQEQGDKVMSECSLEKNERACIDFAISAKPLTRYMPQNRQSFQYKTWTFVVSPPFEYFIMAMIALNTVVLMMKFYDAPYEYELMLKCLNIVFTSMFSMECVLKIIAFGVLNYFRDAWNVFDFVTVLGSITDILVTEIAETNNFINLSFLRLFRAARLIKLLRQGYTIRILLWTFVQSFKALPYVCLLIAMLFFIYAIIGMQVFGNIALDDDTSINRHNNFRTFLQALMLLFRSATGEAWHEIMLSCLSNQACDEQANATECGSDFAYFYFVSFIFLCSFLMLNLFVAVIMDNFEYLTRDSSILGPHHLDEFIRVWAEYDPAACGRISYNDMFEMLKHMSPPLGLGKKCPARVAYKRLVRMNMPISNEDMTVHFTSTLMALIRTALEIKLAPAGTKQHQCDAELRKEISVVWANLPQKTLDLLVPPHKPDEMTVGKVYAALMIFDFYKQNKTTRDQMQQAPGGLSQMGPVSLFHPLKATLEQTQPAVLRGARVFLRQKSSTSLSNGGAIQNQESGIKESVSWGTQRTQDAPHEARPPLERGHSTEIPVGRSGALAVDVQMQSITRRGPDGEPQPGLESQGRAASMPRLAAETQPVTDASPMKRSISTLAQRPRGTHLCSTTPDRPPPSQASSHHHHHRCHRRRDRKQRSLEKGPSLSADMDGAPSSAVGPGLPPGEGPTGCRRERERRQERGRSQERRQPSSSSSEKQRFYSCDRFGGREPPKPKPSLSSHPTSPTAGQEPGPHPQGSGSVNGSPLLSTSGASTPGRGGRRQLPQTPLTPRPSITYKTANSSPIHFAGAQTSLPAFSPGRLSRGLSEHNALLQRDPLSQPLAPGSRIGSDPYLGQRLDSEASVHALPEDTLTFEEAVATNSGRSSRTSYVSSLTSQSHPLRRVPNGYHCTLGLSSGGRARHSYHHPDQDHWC
T4 sequence (Q02410 whole entry): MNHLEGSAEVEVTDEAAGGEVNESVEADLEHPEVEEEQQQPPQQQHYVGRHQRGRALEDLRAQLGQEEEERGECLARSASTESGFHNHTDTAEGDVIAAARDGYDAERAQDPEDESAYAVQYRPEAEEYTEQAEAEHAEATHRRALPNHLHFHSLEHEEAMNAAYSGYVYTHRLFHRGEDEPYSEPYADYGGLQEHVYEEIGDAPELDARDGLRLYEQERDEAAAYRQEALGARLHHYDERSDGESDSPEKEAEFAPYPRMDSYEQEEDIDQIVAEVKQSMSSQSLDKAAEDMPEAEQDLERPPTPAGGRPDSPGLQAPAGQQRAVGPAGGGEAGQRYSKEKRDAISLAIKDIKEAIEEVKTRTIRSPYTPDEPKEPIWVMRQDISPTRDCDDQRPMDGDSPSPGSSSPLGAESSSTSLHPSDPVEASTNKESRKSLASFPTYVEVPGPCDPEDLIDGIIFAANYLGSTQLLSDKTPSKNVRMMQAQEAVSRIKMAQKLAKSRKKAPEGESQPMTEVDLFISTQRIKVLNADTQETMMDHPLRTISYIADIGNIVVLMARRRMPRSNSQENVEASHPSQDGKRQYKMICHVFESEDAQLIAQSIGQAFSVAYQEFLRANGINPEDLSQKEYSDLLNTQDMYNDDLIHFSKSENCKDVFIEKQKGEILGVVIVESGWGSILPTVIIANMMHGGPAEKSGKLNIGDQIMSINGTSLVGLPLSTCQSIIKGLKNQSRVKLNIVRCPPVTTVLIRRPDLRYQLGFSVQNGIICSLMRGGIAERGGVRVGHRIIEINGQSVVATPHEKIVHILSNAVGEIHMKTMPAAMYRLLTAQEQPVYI

[29] = biological target: Caspase-7 (Homo sapiens, UniProt P55210); test: procaspase-7 activators, dose response, counter-screen for procaspase-3 activator project, biochemical, absorbance (AID 489013)
[30] = biological target: T5, Caspase-3 (Homo sapiens, UniProt P42574); test: procaspase-3 activators, dose response, biochemical, absorbance (AID 489014)
T5 sequence (P42574 whole entry): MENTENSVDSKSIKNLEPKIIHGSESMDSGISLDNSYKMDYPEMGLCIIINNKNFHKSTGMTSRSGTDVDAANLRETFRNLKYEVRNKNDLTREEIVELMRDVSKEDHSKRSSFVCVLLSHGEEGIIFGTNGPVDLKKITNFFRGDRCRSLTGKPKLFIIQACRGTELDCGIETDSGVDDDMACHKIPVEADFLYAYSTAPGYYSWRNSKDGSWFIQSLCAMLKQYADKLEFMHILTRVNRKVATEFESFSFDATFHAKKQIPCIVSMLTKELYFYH

[31] = biological target: T4, Voltage-gated N-type calcium channel alpha-1B subunit/Amyloid beta A4 precursor protein-binding family A member 1; type: protein assay; remark: listed apart in the source

Chain of Trypsin (P00761 whole entry): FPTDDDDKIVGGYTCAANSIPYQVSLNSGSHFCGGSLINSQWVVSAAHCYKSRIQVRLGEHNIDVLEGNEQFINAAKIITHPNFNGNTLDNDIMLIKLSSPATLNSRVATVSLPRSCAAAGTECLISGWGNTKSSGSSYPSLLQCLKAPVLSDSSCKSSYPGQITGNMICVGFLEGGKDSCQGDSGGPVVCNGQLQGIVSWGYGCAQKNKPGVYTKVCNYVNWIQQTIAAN
Chain of CAAX prenyl protease 2 (Saccharomyces cerevisiae S288c, UniProt Q03530) (Q03530 whole entry): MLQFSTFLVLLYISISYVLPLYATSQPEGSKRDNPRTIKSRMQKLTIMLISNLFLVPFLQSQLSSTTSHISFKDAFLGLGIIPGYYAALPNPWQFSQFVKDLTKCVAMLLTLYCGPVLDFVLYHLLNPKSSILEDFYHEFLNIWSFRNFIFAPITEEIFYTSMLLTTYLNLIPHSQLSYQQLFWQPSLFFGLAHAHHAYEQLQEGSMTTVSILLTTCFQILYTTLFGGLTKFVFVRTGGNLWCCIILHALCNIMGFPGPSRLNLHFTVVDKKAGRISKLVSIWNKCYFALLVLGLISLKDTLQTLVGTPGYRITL

With `CC(=O)Nc1ccc(S(=O)(=O)Nc2cccc(-c3nc4ccccc4o3)c2)cc1` as the compound, how does the AC50 [1] read?
The AC50 was 5.89 µM (active).

And the AC50 [2]?
The AC50 was 14.4 µM (active).

What about the AC50 [3] of the same compound?
Its AC50 is 7.83 µM (active).

And the AC50 [4]?
Its AC50 is 7.75 µM (active).

What about the IC50 [5] of the same compound?
Its IC50 is > 100 µM (active).

What does the source list for `COC(=O)Nc1nc(-c2ccccc2)c(C(=O)c2ccccc2)s1`?
IC50 [6]: > 25 µM (inactive); EC50 [7]: 1.19 µM (active); EC50 [8]: 1.36 µM (active); EC50 [9]: < 0.1 µM (active); EC50 [10]: 1.56 µM (active); EC50 [11]: 1.04 µM (active); EC50 [12]: < 0.1 µM (active); EC50 [13]: 0.676 µM (active); EC50 [14]: 1.73 µM (active); EC50 [15]: 0.479 µM (active); EC50 [16]: 1.04 µM (active)

What does the source list for `CCCC1=NN2C(=N)/C(=C\c3ccc(SCc4ccco4)o3)C(=O)N=C2S1`?
IC50 [17]: > 50 µM (not active); IC50 [18]: 6.34 µM (active); IC50 [19]: 29.3 µM (active); IC50 [20]: 1.98 µM (inconclusive); IC50 [21]: > 75 µM (active); IC50 [22]: > 100 µM (inactive); IC50 [23]: 2.65 µM (active); IC50 [24]: 22.8 µM (active); IC50 [25]: 3.18 µM (active); IC50 [26]: 59.4 µM (active); IC50 [27]: 13.7 µM (active)

What does the source list for `Cc1cc2nn(-c3cccc4ccccc34)nc2cc1N`?
IC50 [28]: 8.23 µM (active); EC50 [29]: > 85.2 µM (inactive); EC50 [30]: > 85.2 µM (inactive); IC50 [31]: 46.7 µM (active)
